Reference: ChEMBL document CHEMBL1140899, “Computational studies of epidermal growth factor receptor: docking reliability, three-dimensional quantitative structure-activity relationship analysis, and virtual screening studies” (J Med Chem, 2009)
Active and inactive are the calls of the source. No cut-off for these calls is given here.

Each compound was assayed against T1, Epidermal growth factor receptor (Homo sapiens, UniProt P00533) (assay: Inhibition of human recombinant EGFR up to 100 uM). Details: not given.
T1 sequence (P00533 whole entry): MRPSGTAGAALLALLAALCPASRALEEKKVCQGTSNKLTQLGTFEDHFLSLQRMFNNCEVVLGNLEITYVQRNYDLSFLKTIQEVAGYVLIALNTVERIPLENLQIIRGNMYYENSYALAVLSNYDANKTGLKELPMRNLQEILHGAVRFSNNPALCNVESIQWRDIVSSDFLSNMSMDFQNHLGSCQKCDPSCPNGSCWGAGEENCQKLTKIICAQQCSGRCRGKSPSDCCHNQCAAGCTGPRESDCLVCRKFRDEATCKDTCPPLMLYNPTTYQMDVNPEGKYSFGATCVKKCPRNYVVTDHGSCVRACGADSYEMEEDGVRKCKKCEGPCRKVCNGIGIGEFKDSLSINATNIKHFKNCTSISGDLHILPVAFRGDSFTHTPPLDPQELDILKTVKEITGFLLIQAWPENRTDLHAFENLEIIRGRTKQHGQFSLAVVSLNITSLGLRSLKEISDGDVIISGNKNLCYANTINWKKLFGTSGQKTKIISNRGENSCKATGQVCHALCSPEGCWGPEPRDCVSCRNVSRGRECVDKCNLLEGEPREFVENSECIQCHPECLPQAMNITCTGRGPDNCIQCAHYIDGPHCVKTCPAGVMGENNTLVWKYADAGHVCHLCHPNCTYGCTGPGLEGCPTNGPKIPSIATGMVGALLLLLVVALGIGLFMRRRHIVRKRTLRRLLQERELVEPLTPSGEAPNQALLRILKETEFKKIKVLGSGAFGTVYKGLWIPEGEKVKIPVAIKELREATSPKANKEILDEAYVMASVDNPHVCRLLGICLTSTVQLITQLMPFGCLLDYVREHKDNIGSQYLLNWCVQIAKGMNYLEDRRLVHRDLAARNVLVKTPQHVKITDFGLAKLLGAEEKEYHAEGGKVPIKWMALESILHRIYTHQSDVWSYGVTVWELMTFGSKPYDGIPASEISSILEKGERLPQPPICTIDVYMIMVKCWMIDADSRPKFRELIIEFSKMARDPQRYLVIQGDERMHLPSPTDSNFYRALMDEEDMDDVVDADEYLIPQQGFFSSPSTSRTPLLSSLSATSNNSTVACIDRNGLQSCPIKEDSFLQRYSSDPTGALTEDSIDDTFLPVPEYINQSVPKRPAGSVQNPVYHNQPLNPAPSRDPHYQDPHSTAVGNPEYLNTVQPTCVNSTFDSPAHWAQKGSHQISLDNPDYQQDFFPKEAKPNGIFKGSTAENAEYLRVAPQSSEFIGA

Row | Activity | SMILES
1 | inactive | FC(F)(F)Oc1ccc(Nc2ccnc3cc(Cl)ccc23)cc1

The compounds below were run against T1, Epidermal growth factor receptor (assay: not given). Details: not given.

Row | SMILES | IC50
2 | C=CC(=O)Nc1nc2c(Cc3ccc(F)c(Cl)c3)ncnc2cc1CCCCN1CCOCC1 | 2.69 nM
3 | CN(C)CCCNC(=O)/C=C/C(=O)Cc1cc2c(Nc3cccc(Br)c3)ncnc2cn1 | 1.1 nM
4 | OCC(O)CN1Cc2cc3c(Nc4cccc(Br)c4)ncnc3cc21 (stereo unspecified) | 1.58 nM
5 | O=C(O)CCNc1cc2ncnc(Nc3cccc(Br)c3)c2cn1 | 0.603 nM
6 | C=CC(=O)Nc1ccc2ncnc(Cc3ccc(OCCN(C)C)c(Br)c3)c2c1 | 26.9 nM
7 | O=C(Nc1ccc(Br)cc1)Nc1ncnc2nn3ccccc3c12 | 10000 nM
8 | CC(=O)/C=C/C(=O)Cc1ccc2ncnc(Nc3cccc(Br)c3)c2c1 | 1.2 nM
9 | C=CC(=O)NC1=CC=C2N=CN=C(Nc3cccc(C(F)(F)F)c3)C21 (stereo unspecified) | 0.912 nM
10 | CN1Cc2cc3c(Nc4cccc(Br)c4)ncnc3cc21 | 0.794 nM
11 | C=CC(=O)Nc1cc2c(Cc3ccc(F)c(Cl)c3)ncnc2cc1OCCCN1CCOCC1 | 1.51 nM
12 | C=CC(=O)Nc1cc2c(Cc3ccc(F)c(Br)c3)ncnc2cc1OCCCN1CCOCC1 | 1.82 nM
13 | Nc1ncnc2nn3ccccc3c12 | 10000 nM
14 | O=C(O)/C=C/C(=O)Cc1ccc2ncnc(Nc3cccc(Br)c3)c2c1 | 0.372 nM
15 | O=C(CCCN1Cc2cc3c(Nc4cccc(Br)c4)ncnc3cc21)N1CCOCC1 | 8.71 nM
16 | COc1cc(NC(=O)/C=C/CN2CCOCC2)cc2c(Nc3cccc(Br)c3)ccnc12 | 5390 nM
17 | O=C(O)CN1Cc2cc3c(Nc4cccc(Br)c4)ncnc3cc21 | 5.13 nM
18 | O=C(Nc1ccc(C(F)(F)F)cc1)Nc1ncnc2nn3ccccc3c12 | 10000 nM
19 | Brc1cccc(Nc2ncnc3cc4c(cc23)CN4)c1 | 0.437 nM
20 | CC(C(=O)/C=C/C(=O)NCCCN(C)C)c1cc2c(Nc3cccc(Br)c3)ncnc2cn1 (stereo unspecified) | 1.45 nM
21 | O=C(Nc1cccc(C(F)(F)F)c1)Nc1ncnc2nn3ccccc3c12 | 10000 nM
22 | O=S(=O)(CO)Nc1cc2c(Nc3cccc(Br)c3)ncnc2cn1 | 93.3 nM
23 | C=CC(=O)Nc1cc2c(Cc3cccc(Br)c3)ncnc2cc1OCCCn1ccnc1 | 3.02 nM
24 | C/C=C/C(=O)Nc1cc2c(Nc3ccc(F)c(Cl)c3)ccnc2cc1CC | 7500 nM
25 | C=CC(=O)Nc1cc2c(Cc3cccc(C)c3)ncnc2cc1OCCCN1CCC(C)CC1 | 2 nM
26 | O=C(CCn1ncc2cc3c(Nc4cccc(Br)c4)ncnc3cc21)N1CCOCC1 | 3.72 nM
27 | COc1cc2nccc(Nc3ccc(F)c(Cl)c3)c2cc1NC(=O)/C=C/CN1CCOCC1 | 13600 nM

Row | SMILES | IC50
28 | C=CC(=O)Nc1nc2c(Cc3ccc(F)c(Cl)c3)ncnc2cc1/C=C/CCN1CCOCC1 | 0.158 nM
29 | C=CC(=O)NC1=CC=C2N=CN=C(Nc3cccc(C)c3)C21 (stereo unspecified) | 0.417 nM
30 | O=C(Cc1c[nH]c2cc3ncnc(Nc4cccc(Br)c4)c3cc12)N1CCOCC1 | 4.79 nM
31 | C=CC(=O)NC1=CC=C2N=CN=C(Nc3ccc(OCc4ccccc4)cc3)C21 (stereo unspecified) | 3.63 nM
32 | C=CC(=O)NC1=NC=C2N=CN=C(Nc3cccc(C)c3)C21 (stereo unspecified) | 0.479 nM
33 | C=CC(=O)Nc1ccc2ncnc(Cc3cccc(C)c3)c2c1 | 0.417 nM
34 | C=CC(=O)C(CCCN1CCOCC1)c1ccc2ncnc(Nc3cccc(Br)c3)c2c1 (stereo unspecified) | 3.31 nM
35 | C=CC(=O)Nc1ccc2ncnc(Cc3ccc(F)c(Br)c3)c2c1 | 0.692 nM
36 | C=CC(=O)Nc1nc2c(Cc3ccc(F)c(Cl)c3)ncnc2cc1OCCCN1CCC(C)CC1 | 6.61 nM
37 | C=C=CC(=O)Cc1ccc2ncnc(Nc3cccc(Br)c3)c2c1 | 1.58 nM
38 | C=CC(=O)Nc1cc2c(Cc3cccc(C)c3)ncnc2cc1OCCCN1CCOCC1 | 1.51 nM
39 | C=CC(=O)Nc1ccc2ncnc(Cc3ccc(F)c(Cl)c3)c2n1 | 0.759 nM
40 | O=C(/C=C/C(=O)NCCCn1ccnc1)Cc1cc2c(Nc3cccc(Br)c3)ncnc2cn1 | 0.562 nM
41 | CCOC(=O)/C=C/C(=O)Cc1ccc2ncnc(Nc3cccc(Br)c3)c2c1 | 2.69 nM
42 | C=CC(=O)Nc1cc2ncnc(Nc3cccc(Br)c3)c2[nH]1 | 1.1 nM
43 | C=CC(=O)Nc1cc2c(Cc3cccc(Br)c3)ncnc2cc1OCCCN1CCC(C)CC1 | 1.7 nM
44 | C=CC(=O)Nc1cc2c(Cc3cccc(Br)c3)ncnc2cc1OCCCCN(C)C | 3.89 nM
45 | C=CC(=O)NC1=CC=C2N=CN=C(Nc3ccc(Oc4ccccc4)cc3)C21 (stereo unspecified) | 5.75 nM
46 | C/C=C/C(=O)Cc1ccc2ncnc(Nc3cccc(Br)c3)c2c1 | 0.55 nM
47 | COc1cc2ncnc(Nc3ccc(F)c(Cl)c3)c2cc1CN1CC[C@@H](C(N)=O)C1 | 6 nM
48 | C=CC(=O)Nc1ccc2ncnc(Cc3ccc(CN(C)C)c(Br)c3)c2c1 | 44.7 nM
49 | COc1cc2ncnc(Nc3ccc(F)c(Cl)c3)c2cc1CNC(=O)[C@H]1CCCCN1C | 8 nM
50 | O=C(Nc1ccc(F)cc1)Nc1ncnc2nn3ccccc3c12 | 10000 nM
51 | O=C(/C=C/CC(=O)Nc1ccc2ncnc(Nc3cccc(Br)c3)c2c1)Nc1ccc2c(Nc3cccc(Br)c3)ncnc2c1 | 0.447 nM
52 | C=CC(=O)C(CCCN1CCOCC1)c1cc2c(Nc3cccc(Br)c3)ncnc2cn1 (stereo unspecified) | 2.69 nM
53 | CCN(CC)CCCNC(=O)/C=C/C(=O)Cc1cc2c(Nc3cccc(Br)c3)ncnc2cn1 | 0.724 nM

Now from value to compound:

Row | IC50 | SMILES
54 | 10.1 nM | COC[C@H]1Oc2cc3ncnc(Nc4cccc(Cl)c4)c3cc2O[C@@H]1COC
55 | 0.912 nM | C=CC(=O)Cc1cc2c(Nc3cccc(Br)c3)ncnc2cn1
56 | 40.7 nM | CN(C)CCN1Cc2cc3c(Nc4cccc(Br)c4)ncnc3cc21
57 | < 1 nM | COc1cc2ncnc(Nc3ccc(F)c(Cl)c3)c2cc1CN(C(C)C)[C@@H](C)C(N)=O
58 | 0.251 nM | C=CC(=O)Nc1ccc2c(Nc3cccc(Br)c3)ncnc2c1
59 | 0.759 nM | C=CC(=O)Nc1ccc2ncnc(Cc3ccc(F)c(Cl)c3)c2c1
60 | 0.955 nM | C=CC(=O)Nc1nc2c(Cc3ccc(F)c(Cl)c3)ncnc2cc1OC
61 | 10300 nM | CCOc1cc2nccc(Nc3cccc(Br)c3)c2cc1NC(=O)/C=C/CN1CCOCC1
62 | 1.2 nM | C=C(C)C(=O)Cc1ccc2ncnc(Nc3cccc(Br)c3)c2c1
63 | 0.708 nM | C=CC(=O)Nc1ccc2ncnc(Cc3cccc(Br)c3)c2c1
64 | 10000 nM | N#Cc1cccc(NC(=O)Nc2ncnc3nn4ccccc4c23)c1
65 | 1.2 nM | C=CC(=O)Nc1cc2ncnc(Nc3ccc(F)c(Br)c3)c2[nH]1
66 | 4.6 nM | COc1cc2ncnc(Nc3cccc(C)c3)c2cc1OC
67 | 10000 nM | O=C(Nc1cccc([N+](=O)[O-])c1)Nc1ncnc2nn3ccccc3c12
68 | 234 nM | CS(=O)(=O)CCN(CCCCOc1ccc2ncnc(Nc3ccc(OCc4ccccc4)cc3)c2c1)C(=O)C(F)(F)F
69 | 0.692 nM | O=C(/C=C\Cl)Cc1cc2c(Nc3cccc(Br)c3)ncnc2cn1
70 | 0.501 nM | C/C=C/C(=O)Cc1cc2c(Nc3cccc(Br)c3)ncnc2cn1
71 | 1.58 nM | C=C(C)C(=O)Cc1cc2c(Nc3cccc(Br)c3)ncnc2cn1
72 | 6300 nM | FC(F)(F)c1ccc(-n2cnnc2SCc2nc(COc3c(Cl)cccc3Cl)no2)cc1

Row | IC50 | SMILES
73 | 1.58 nM | C=CC(=O)NC1=CC=C2N=CN=C(Nc3cccc(Cl)c3)C21 (stereo unspecified)
74 | 9 nM | COc1cc2ncnc(Nc3ccc(F)c(Cl)c3)c2cc1CN(C)[C@H](C)C(N)=O
75 | 20 nM | C=CC(=O)N(C)c1nc2c(Cc3ccc(F)c(Cl)c3)ncnc2cc1OCCCN1CCOCC1
76 | 10600 nM | COc1cc2nccc(Nc3ccc(F)c(Cl)c3)c2cc1NC(=O)/C=C/C(C)N1CCOCC1 (stereo unspecified)
77 | 0.776 nM | C=CC(=O)Nc1cc2c(Cc3cccc(Br)c3)ncnc2cc1SCCCN(CC)CC
78 | 0.0891 nM | CN(C)c1cc2ncnc(Nc3cccc(Br)c3)c2cn1
79 | 1.51 nM | CCOC(=O)/C=C/C(=O)Cc1cc2c(Nc3cccc(Br)c3)ncnc2cn1
80 | 0.724 nM | C=CC(=O)NC1=NC=C2N=CN=C(Nc3ccc(F)c(Br)c3)C21 (stereo unspecified)
81 | 8.6 nM | CN(N)C/C=C/C(=O)Nc1cc2c(Nc3cccc(Br)c3)ccnc2cn1
82 | 1.7 nM | C=CC(=O)Nc1cc2c(Cc3ccc(F)c(Cl)c3)ncnc2cc1OCCOCCCCO
83 | 5220 nM | COc1cc2nccc(Nc3ccc(F)c(Cl)c3)c2cc1NC(=O)/C=C/C(C)N(C)C (stereo unspecified)
84 | 8 nM | COc1cc2ncnc(Nc3ccc(F)c(Cl)c3)c2cc1CN(C)[C@@H](C)C(N)=O
85 | 11100 nM | CCOC(=O)c1ccc(N2CCOCC2)c(NS(=O)(=O)c2cc(Br)c(Cl)s2)c1
86 | 0.537 nM | C=CC(=O)Nc1cc2ncnc(Nc3cccc(Cl)c3)c2cn1
87 | 0.676 nM | C/C=C/C(=O)Nc1ccc2c(Nc3cccc(Br)c3)ncnc2c1
88 | 0.17 nM | C=CC(=O)C(C)c1cc2c(Nc3cccc(Br)c3)ncnc2cn1 (stereo unspecified)
89 | 0.776 nM | C=CC(=O)NC1=NC=C2N=CN=C(Nc3ccc(F)c(Cl)c3)C21 (stereo unspecified)
90 | 0.977 nM | C=CC(=O)Nc1nc2c(Cc3ccc(F)c(Cl)c3)ncnc2cc1OCCOC

What follows are compounds tested against T1, Epidermal growth factor receptor (assay: not given). Details: at 100 µM.

Row | inhibition | SMILES
91 | 53% | O=c1[nH]nc(SCCS(=O)(=O)c2cccc(C(F)(F)F)c2)n1-c1ccc(OCc2ccccc2)cc1
92 | 44% | CC1=NNC2OC(N)=C(C#N)C(c3ccc4c(c3)OCO4)C12 (stereo unspecified)
93 | 100% | COc1cc2ncnc(Nc3cccc(C)c3)c2cc1OC
94 | 77% | FC(F)(F)c1ccc(-n2cnnc2SCc2nc(COc3c(Cl)cccc3Cl)no2)cc1
95 | 48% | O=c1[nH]nc2n1-c1ccccc1SC2
96 | 80% | CCOC(=O)c1ccc(N2CCOCC2)c(NS(=O)(=O)c2cc(Br)c(Cl)s2)c1
97 | 55% | CN1CCN(c2ccccc2/C=C2/C(=O)Nc3ccccc32)CC1

Each compound was assayed against T1, Epidermal growth factor receptor (assay: Inhibition of human recombinant EGFR at 100 uM). Details: not given.

Row | inhibition | SMILES
98 | 0% | Nc1ccc(Nc2ccc([N+](=O)[O-])c3ncnc(O)c23)cc1
99 | 0% | COc1ccc([N+](=O)[O-])c2ncnc(O)c12
100 | 0% | Cc1cccc(Nc2ccc([N+](=O)[O-])c3ncnc(O)c23)c1

Row | SMILES | inhibition
101 | O=[N+]([O-])c1ccc(N2CCCC2)c2c(O)ncnc12 | 0%
